Like-named read-outs stand apart in the source and are kept apart here.
Columns and labels:
CYP1A2 = molecular target: T1, CYP1A2 (Homo sapiens, UniProt P05177); assay: Inhibition of cytochrome P450 isozymes in human liver microsomes, CYP1A2; type: in vitro ADME; details: phenacetin substrate
T1 sequence (P05177 1-516): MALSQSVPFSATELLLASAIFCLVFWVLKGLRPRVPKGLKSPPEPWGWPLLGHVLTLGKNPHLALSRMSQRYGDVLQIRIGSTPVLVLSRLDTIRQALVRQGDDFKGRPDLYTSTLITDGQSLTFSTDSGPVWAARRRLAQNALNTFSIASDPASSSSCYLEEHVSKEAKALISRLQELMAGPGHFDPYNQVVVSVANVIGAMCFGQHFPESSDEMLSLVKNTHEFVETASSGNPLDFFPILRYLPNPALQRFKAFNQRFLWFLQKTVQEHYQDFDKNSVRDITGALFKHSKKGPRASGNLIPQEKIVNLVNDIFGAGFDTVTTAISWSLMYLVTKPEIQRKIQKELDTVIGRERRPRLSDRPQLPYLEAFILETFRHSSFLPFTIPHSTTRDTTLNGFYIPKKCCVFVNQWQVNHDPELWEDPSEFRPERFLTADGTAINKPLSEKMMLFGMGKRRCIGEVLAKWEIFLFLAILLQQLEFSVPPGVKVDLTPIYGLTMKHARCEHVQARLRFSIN
Description: (§1) (1) Study on the Inhibition of Cytochrome P450 Isozymes
(§2) The probe substrate, test compound, human liver microsomes, and cofactors were incubated together. The concentration of the metabolic product of the probe substrate was detected using LC-MS/MS to calculate the IC50 values. In the vehicle control samples, the test compound was replaced with an equal volume of vehicle, and the enzyme activity of the vehicle control samples was set as 100%. […]
(§3) Upon reaching the respective reaction times for the incubation systems of the various isoenzymes, 200 μL of termination solution containing the appropriate internal standard was added to the reaction plate to terminate the reaction. […] The metabolites of the probe substrates were then analyzed using LC-MS/MS. […]
(§4) The activity of various CYP isoenzymes was reflected by the production rate of metabolites from each probe substrate. […] The residual activity percentage of each isoenzyme was determined by comparing the metabolite production rate of the probe substrate in the presence of different concentrations of the test compound or positive inhibitor to that of the vehicle control samples, then multiplying by 100%. […]

CYP3A = CYP3A (Homo sapiens, UniProt P08684); assay: Inhibition of cytochrome P450 isozymes in human liver microsomes, CYP3A; type: in vitro ADME
Description: as §1, §2, §3, §4

[1] = tested on: human breast cancer MCF-7 cell subcutaneous xenograft tumor; type: in vivo; details: PO, QD; for T/C (%) / TGI (%) / Tumor volume (mm^3) (Day 21): Day 21; for Tumor volume (mm^3) (Day 21): listed as compound (I)
Description: (1) In Vivo Pharmacodynamic Study of Breast Cancer MCF-7 Cell Subcutaneous Xenograft Tumor BALB/c Nude Mouse Model
Objective: This study aimed to evaluate the in vivo efficacy of the crystal form C of the compound of formula (I) using a human breast cancer MCF-7 cell subcutaneous xenograft tumor model in nude mice.
Routine digestion with trypsin-EDTA (Gibco) was performed twice a week for passaging.
Cell inoculation: Estrogen pellets (0.36 mg/pellet; IRA) were subcutaneously inoculated into the left dorsum of each mouse. Three days later, 0.2 mL (1×10^7 cells) of MCF-7 cells (mixed with Matrigel; CORNING, volume ratio 1:1) were subcutaneously inoculated into the right dorsum of each mouse. When the average tumor volume reached 188 mm^3, the mice were grouped and the administration of compounds began.
An appropriate amount of the compound of formula (I) was weighed and prepared into 0.1, 0.3, 1, and 3 mg/mL solutions. […] Fulvestrant was used as the commercially available injection Faslodex.
The antitumor efficacy of the compounds was evaluated using Tumor Growth Inhibition (TGI, %) and relative tumor proliferation rate (T/C, %).
The Q value of combined medication index was calculated using the Jin formula. The criteria for judgment were as follows: a Q value of 0.85 to 1.15 indicated […] (+); a Q value>1.15 to 2.0 indicated enhancement (++); a Q value<0.85 to 0.55 indicated antagonism (−); and a Q value<0.55 indicated significant antagonism (−−). The formula was Q=Ea+b/(Ea+Eb−Ea×Eb), where Ea+b was the tumor inhibition rate of the combined medication group, and Ea and Eb were the tumor inhibition rates of the single medication groups, respectively.
Inter-group comparisons were analyzed using one-way ANOVA. […] A p value<0.05 was considered to indicate a significant difference.

Sequence of CYP3A (P08684 2-503): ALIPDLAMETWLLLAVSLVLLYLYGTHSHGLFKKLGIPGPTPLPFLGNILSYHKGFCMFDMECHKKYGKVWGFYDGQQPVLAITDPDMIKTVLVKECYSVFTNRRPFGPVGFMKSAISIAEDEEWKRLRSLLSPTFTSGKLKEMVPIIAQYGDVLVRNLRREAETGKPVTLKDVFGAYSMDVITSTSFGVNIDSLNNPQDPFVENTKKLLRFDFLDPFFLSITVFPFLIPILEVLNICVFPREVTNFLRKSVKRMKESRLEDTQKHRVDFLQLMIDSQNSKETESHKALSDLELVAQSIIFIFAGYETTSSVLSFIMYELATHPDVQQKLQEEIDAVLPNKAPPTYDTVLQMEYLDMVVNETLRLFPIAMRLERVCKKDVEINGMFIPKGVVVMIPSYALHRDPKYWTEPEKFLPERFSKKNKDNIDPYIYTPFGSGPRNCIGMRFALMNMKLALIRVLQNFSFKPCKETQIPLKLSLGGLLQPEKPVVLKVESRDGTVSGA

FCCCN1CC[C@H](Nc2cnc(C3=C(CC(F)(F)F)CCCc4c3ccc3[nH]nc(F)c43)cn2)C1 [Compound of formula (I)]
IC50 (CYP1A2): 97.2 µM
IC50 at 3 min (CYP3A; probe midazolam, midazolam as the substrate): 8.38 µM
IC50 at 10 min (CYP3A; probe testosterone, testosterone as the substrate): 10.9 µM
T/C (%) ([1]; 1 mg/kg): 27.2%
TGI (%) ([1]; 1 mg/kg): 85.3%
Tumor volume (mm^3) (Day 21) ([1]; 1 mg/kg): 340 mm^3
T/C (%) ([1]; 3 mg/kg): 14.8%
TGI (%) ([1]; 3 mg/kg): 100.9%
Tumor volume (mm^3) (Day 21) ([1]; 3 mg/kg): 179 mm^3
ORR % ([1]; 10 mg/kg): 25%
T/C (%) ([1]; 10 mg/kg): 11.3%
TGI (%) ([1]; 10 mg/kg): 104.6%
Tumor volume (mm^3) (Day 21) ([1]; 10 mg/kg): 140 mm^3
ORR % ([1]; 30 mg/kg): 25%
T/C (%) ([1]; 30 mg/kg): 9.7%
TGI (%) ([1]; 30 mg/kg): 106.5%
Tumor volume (mm^3) (Day 21) ([1]; 30 mg/kg): 121 mm^3

Source: patent US12410155B2, “Salt form and crystal form of tetrahydrocyclohepta indazole compound” (Zhejiang Yangli Pharmaceutical Technology Co., Ltd., priority 2021, dated 2025)
